The results in this text go back to ChEMBL document CHEMBL4342505, “Achieving In Vivo Target Depletion through the Discovery and Optimization of Benzimidazolone BCL6 Degraders” (J Med Chem, 2020).

Broadly, the logD is lipophilicity at a set pH, counting ionised and neutral species. A lower logD goes with a more hydrophilic compound. A word on the pIC50: it is −log10 of the IC50, conventionally taken in molar units. A word on the GI50: it is the concentration giving 50% growth inhibition. In general, AUC refers to the area under the concentration-time curve, a measure of exposure. Read a high AUC as more exposure. In general, Tmax refers to the time from dosing to the highest level. What is called AUC(0-t) is exposure summed from dosing to a finite time, without extrapolation to infinity. The term Cmax denotes the highest concentration seen after dosing. By fraction unbound is commonly meant free concentration divided by total concentration.

pIC50: −log10 of the molar value. Values after ≈ are worked out from the molar mass of the structure shown. Active and inactive are the calls of the source. No cut-off for these calls is given here.

Data set [1] is described as follows: Kinetic solubility in HEPES buffer containing 5% DMSO at pH 8 incubated for 20 hrs by NMR analysis. The class given is physicochemical. To be noted: read-out: Kinetic_solubility.
In data set [2] the target is T1, B-cell lymphoma 6 protein (Homo sapiens, UniProt P41182). Conditions: oci-ly1.
Description: Induction of BCL6 degradation in human OCI-LY1 cells incubated for 2 hrs by MSD electrochemiluminescent immunoassay
In data set [3] the target is T1, B-cell lymphoma 6 protein.
Description: Induction of BCL6 degradation in human KARPAS422 cells incubated for 2 hrs by MSD electrochemiluminescent immunoassay
A short description of data set [4]: Metabolic stability in CD-1 mouse liver microsomes assessed as intrinsic clearance at 1 uM measured upt0 30 mins by LC-MS/MS analysis. To be noted: 0.5 h. The class given is ADME, Microsome. Background: Liver microsomes are a subcellular fraction often used to study metabolism.
Data set [5] can be described thus: Lipophilicity, log D of compound at pH 7.4. To be noted: buffer. The class given is physicochemical.
Data set [6] has as its target T1, B-cell lymphoma 6 protein. This is another data set of the same source.
Description: Inhibition of recombinant His-tagged human BCL6 expressed in Escherichia coli BL21 AI cell incubated for 2 hrs by TR-FRET assay
The subject of a further data set is OCI-Ly3. As to the kind of experiment: Antiproliferative activity agianst human OCI-LY3 cells assessed as growth inhibition incubated for 14 days by CellTiter Glo reagent based assay. In general terms: Cellular ATP, detected with luciferase, serves as a proxy for viable cell number.
A further data set deals with OCI-Ly1. Kind of data set: Antiproliferative activity agianst human OCI-LY1 cells assessed as growth inhibition incubated for 14 days by CellTiter Glo reagent based assay.
Data set [7] in a line: Plasma concentration in SCID mouse. The data set is classed as ADME, cell-free.
For data set [8], the system named is Mus musculus. Kind of data set: In vivo inhibition of BCL6 in SCID mouse xenografted with human OCI-LY1 cells assessed as reduction in BCL6 level at 15 mg/kg, po measured upto 10 hrs by Western blot analysis. The data set is classed as functional, organism-based. Background: Xenograft models place foreign cells or tissue in a host animal.
Data set [9] can be described thus: AUC (0 to 10) hrs in SCID mouse at 50 mg/kg, po measured upto 10 hrs by LC/MS-MS analysis. The data set is classed as ADME, organism-based. To be noted: in vivo. More on the design: dose 50 mg/kg, time < 10 hr, route oral.
The subject of the next data set is SUD4. As to the kind of experiment: Antiproliferative activity agianst human SUDHL4 cells assessed as growth inhibition incubated for 14 days by CellTiter Glo reagent based assay. The class given is functional. To be noted: SU-DHL-4, […].
The nature of data set [10]: in vivo. To be noted: SCID, mouse, po, 15 mg/kg.
Data set [11] can be described thus: in vivo. To be noted: SCID, mouse, po, 5 mg/kg.
Data set [12] in a line: AUC (0 to 10 hrs) in SCID mouse at 15 mg/kg, po measured upto 10 hrs by LC/MS-MS analysis. The data set is classed as ADME, organism-based. More on the design: dose 15 mg/kg, time < 10 hr, route oral. Conditions: in vivo.
Data set [13] relates to Mus musculus. As to the kind of experiment: In vivo inhibition of BCL6 in SCID mouse xenografted with human OCI-LY1 cells assessed as reduction in BCL6 level at 15 mg/kg, po measured at 12 and 16 hrs by Western blot analysis. The class given is functional, organism-based.
Data set [14] is described as follows: Cmax in SCID mouse at 15 mg/kg, po measured upto 24 hrs by LC/MS-MS analysis. Also noted: dose 15 mg/kg, route oral. To be noted: in vivo. The data set is classed as ADME, organism-based.
A short description of data set [15]: Toxicity in SCID mouse xenografted with human OCI-LY1 cells assessed as adverse effect at 15 mg/kg, po observed for 24 hrs. The class given is organism-based. To be noted: in vivo.
Data set [16] is described as follows: Protein binding in SCID mouse plasma assessed as unbound fraction. The data set is classed as ADME, cell-free.
Data set [17] in a line: Drug level in SCID mouse blood. The data set is classed as ADME, tissue-based. Conditions: read-out: Ct.
The nature of data set [18]: Kinetic solubility in PBS buffer containing 1% DMSO at pH 7.4 incubated for 2 hrs by HPLC analysis. The data set is classed as physicochemical. To be noted: read-out: Kinetic_solubility.
Data set [19] is described as follows: in vivo. To be noted: SCID, mouse, po, 50 mg/kg.
A short description of data set [20]: Cmax in SCID mouse at 50 mg/kg, po measured upto 24 hrs by LC/MS-MS analysis. Also noted: dose 50 mg/kg, route oral. To be noted: in vivo. The data set is classed as ADME, organism-based.
A short description of data set [21]: Cmax in SCID mouse at 5 mg/kg, po measured upto 24 hrs by LC/MS-MS analysis. The class given is ADME, organism-based. More on the design: dose 5 mg/kg, route oral. To be noted: in vivo.
Data set [22] is described as follows: AUC (0 to 10 hrs) in SCID mouse at 5 mg/kg, po measured upto 10 hrs by LC/MS-MS analysis. The class given is ADME, organism-based. Also noted: time < 10 hr, dose 5 mg/kg, route oral. To be noted: in vivo.

On to `Cn1c(=O)n(CCC(C)(C)O)c2cc(Nc3nc(N4CCC(F)(F)CC4)ncc3Cl)ccc21`, for which the solubility kinetic at 20 h in [1] is 66 µM (≈ 31.7 µg/mL). For the same molecule, the DC50 worked out at 180 nM in data set [2] and 290 nM in data set [3]. For the same molecule, the CLH in [4] is 36 µL/min/mg. This molecule displayed a logD in [5] of 3.4. The pIC50 in data set [6] was 6.51. Further, the GI50 was found to be 2600 nM in the data set with OCI-Ly3 and 500 nM in the data set with OCI-Ly1.

In the case of `C[C@@H]1CN(c2ncc(Cl)c(Nc3ccc4c(c3)n(CCC(C)(C)O)c(=O)n4C)n2)C[C@H](C)C1(F)F`, the concentration in data set [7] stood at 1500 nM; in [17], 2800 nM. The inhibition entry in the data set on Mus musculus [8] was “Active”. The solubility kinetic at 20 h in data set [1] is 11 µM (≈ 5.6 µg/mL). This molecule came in with an AUC at 10 h in data set [9] of 47.4 to 56.3 µM·h. Further, the 50% growth inhibitory concentration (GI50) with SUD4 turned out to be 92 nM; with OCI-Ly3, 1600 nM; in the data set with OCI-Ly1 it was 35 nM. The CLH in [4] amounted to 78 µL/min/mg. For the same molecule, the logD in [5] turned out to be 4.3. The Tmax at 24 h in “in vivo [10]” was 0.5 to 2 h; in the data set “in vivo [11]”, 0.5 to 1 h; in “in vivo [19]”, 2 to 6 h. The exposure AUC(0-t) at 10 h in [12] was in the range of 48.2 to 49.3 µM·h; in [22], 11.6 to 13.1 µM·h. Besides, in the data set with Mus musculus [13], the inhibition entry was “inactive”. Besides, the Cmax in data set [14] was 6680 to 6930 nM; in data set [20], 5320 to 6210 nM; in [21], 1870 to 2040 nM. In addition, the Activity result in data set [15] is reported as “Non-Toxic”. Further, the fraction unbound in data set [16] came out at 0.0007. In addition, in data set [18], the solubility kinetic at 2 h turned out to be 8 µM (≈ 4.07 µg/mL).
